# In patent US12180193B2, “Accelerating fibrosarcoma protein degrading compounds and associated methods of use” (Arvinas Operations, Inc., priority 2020, dated 2024):
# How the values were obtained:
# BRAF V600E = target: T1, BRAF V600E (Homo sapiens, UniProt P15056, V600E); experiment: Cellular assay of target protein degradation, T-Rex 293 cells stably transfected with HA-BRAF_V600E (HA immunofluorescence, high content imaging); assay type: cell-based; details: T-Rex 293 HA-BRAF V600E; for DC50: half maximal degradation, read-out: BRaf V600E DC50; for Dmax: maximum degradation observed
# T1 construct: expressed in transfected cells
# T1 sequence (P15056 whole entry V600E): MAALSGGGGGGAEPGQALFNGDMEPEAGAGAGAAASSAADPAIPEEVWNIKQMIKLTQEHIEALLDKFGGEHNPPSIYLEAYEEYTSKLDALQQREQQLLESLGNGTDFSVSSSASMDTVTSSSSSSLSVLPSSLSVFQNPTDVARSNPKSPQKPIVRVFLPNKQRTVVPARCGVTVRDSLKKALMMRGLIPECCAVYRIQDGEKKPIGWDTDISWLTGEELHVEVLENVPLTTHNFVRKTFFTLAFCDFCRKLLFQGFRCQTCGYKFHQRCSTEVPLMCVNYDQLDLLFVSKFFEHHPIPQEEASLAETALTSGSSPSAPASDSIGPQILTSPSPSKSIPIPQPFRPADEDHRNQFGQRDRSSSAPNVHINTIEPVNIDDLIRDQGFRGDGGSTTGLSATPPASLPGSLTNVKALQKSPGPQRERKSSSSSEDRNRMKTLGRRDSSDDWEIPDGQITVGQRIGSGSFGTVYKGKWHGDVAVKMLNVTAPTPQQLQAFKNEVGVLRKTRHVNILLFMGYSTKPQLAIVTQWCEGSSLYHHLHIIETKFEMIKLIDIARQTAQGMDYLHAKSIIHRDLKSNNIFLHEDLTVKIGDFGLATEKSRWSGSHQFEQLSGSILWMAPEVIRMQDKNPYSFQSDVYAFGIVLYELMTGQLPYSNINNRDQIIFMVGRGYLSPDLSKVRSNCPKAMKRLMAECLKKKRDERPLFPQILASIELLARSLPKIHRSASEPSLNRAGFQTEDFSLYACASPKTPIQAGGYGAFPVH
# Summary of the method: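 Doxycycline-induced (1 ng/mL) cells were treated 24 h at 37 °C with compound at 1 μM to 0.1 nM final in 0.1% DMSO. After fixation, permeabilization and blocking, anti-HA staining was imaged by high-content reading; DC50 and Dmax (% of control) were derived.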
# BRAF G466V = target: T2, BRAF G466V (Homo sapiens, UniProt P15056, G466V); experiment: Cellular assay of target protein degradation, T-Rex 293 cells stably transfected with HA-BRAF G466V (HA immunofluorescence, high content imaging); assay type: cell-based; details: T-Rex 293 HA-BRAF G466V; for DC50: half maximal degradation, read-out: BRaf G466V DC50; for Dmax: maximum degradation observed
# T2 construct: expressed in transfected cells
# T2 sequence (P15056 whole entry G466V): as the sequence (P15056 whole entry V600E) above, with G466V, E600V counted along it
# Summary of the method: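 Cells expressing doxycycline-induced (0.75 ng/mL) HA-BRAF G466V were treated with compound at 30 nM to 3 pM in 0.1% DMSO for 24 hours at 37° C. After fixation and permeabilization, HA was immunostained and quantified by high content imaging to derive DC50 and Dmax.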
SMILES,DC50 (BRAF V600E),Dmax (BRAF V600E),DC50 (BRAF G466V),Dmax (BRAF G466V)
"O=C1CC[C@H](NC(=O)c2ccc(N3CCC(CN4CCN(c5ccc(-c6cnc7[nH]cc(C(=O)c8c(F)ccc(NS(=O)(=O)N9CC[C@@H](F)C9)c8F)c7c6)cc5)CC4)CC3)cc2F)C(=O)N1 [Compound 339, 4-(4-{[4-(4-{3-[2,6-difluoro-3-({[(3R)-3-fluoropyrrolidin-1-yl]sulfonyl}amino)benzoyl]-1H-pyrrolo[2,3-b]pyridin-5-yl}phenyl)piperazin-1-yl]methyl}piperidin-1-yl)-N-[(3S)-2,6-dioxopiperidin-3-yl]-2-fluoorobenzamide]",5 to 50 nM,35 to 70%,1 to 10 nM,> 70%
"COc1cc(N2CCC(CN3CC4(C3)CN(c3ccc(-c5cnc6[nH]cc(C(=O)c7c(F)ccc(NS(=O)(=O)N8CC[C@@H](F)C8)c7F)c6c5)cc3)C4)CC2)cc2c1C(=O)N([C@@H]1CCC(=O)NC1=O)C2 [Compound 225, (3R)-N-{3-[5-(4-{6-[(1-{2-[(3R)-2,6-dioxopiperidin-3-yl]-7-methoxy-1-oxo-2,3-dihydro-1H-isoindol-5-yl}piperidin-4-yl)methyl]-2,6-diazaspiro[3.3]heptan-2-yl}phenyl)-1H-pyrrolo[2,3-b]pyridine-3-carbonyl]-2,4-difluorophenyl}-3-fluoropyrrolidine-1-sulfonamide]",5 to 50 nM,35 to 70%,1 to 10 nM,> 70%
"O=C1CC[C@H](N2Cc3cc(N4CC[C@@H](COc5ccc(-c6cnc7[nH]cc(C(=O)c8c(F)ccc(NS(=O)(=O)N9CC[C@@H](F)C9)c8F)c7c6)cc5)C4)ccc3C2=O)C(=O)N1 [Compound 335, (3R)-N-{3-[5-(4-{[(3R)-1-{2-[(3S)-2,6-dioxopiperidin-3-yl]-1-oxo-2,3-dihydro-1H-isoindol-5-yl}pyrrolidin-3-yl]methoxy}phenyl)-1H-pyrrolo[2,3-b]pyridine-3-carbonyl]-2,4-difluorophenyl}-3-fluoropyrrolidine-1-sulfonamide]",> 500 nM,,> 30 nM,
O=C1CCC(N2Cc3cc(N4CC(CN5CCC(C6(c7ncc(-c8cnc9[nH]cc(C(=O)c%10c(F)ccc(NS(=O)(=O)N%11CC[C@@H](F)C%11)c%10F)c9c8)cn7)CC6)CC5)C4)ccc3C2=O)C(=O)N1 (stereo partly drawn) [Compound 334],50 to 500 nM,35 to 70%,1 to 10 nM,> 70%
"O=C1CC[C@H](NC(=O)c2ccc(N3CC4(CN(CC5CCN(c6ccc(-c7cnc8[nH]cc(C(=O)c9c(F)ccc(NS(=O)(=O)N%10CC[C@@H](F)C%10)c9F)c8c7)cc6)CC5)C4)C3)cn2)C(=O)N1 [Compound 345, 5-(6-{[1-(4-{3-[2,6-difluoro-3-({[(3R)-3-fluoropyrrolidin-1-yl]sulfonyl}amino)benzoyl]-1H-pyrrolo[2,3-b]pyridin-5-yl}phenyl)piperidin-4-yl]methyl}-2,6-diazaspiro[3.3]heptan-2-yl)-N-[(3S)-2,6-dioxopiperidin-3-yl]pyridine-2-carboxamide]",5 to 50 nM,35 to 70%,1 to 10 nM,> 70%
"O=C1CCC(N2Cc3cc(C4CCN(C[C@H](O)Cc5ccc(-c6cnc7[nH]cc(C(=O)c8c(F)ccc(NS(=O)(=O)N9CC[C@@H](F)C9)c8F)c7c6)cc5)CC4)ccc3C2=O)C(=O)N1 (stereo partly drawn) [Compound 110, (3R)-N-[3-(5-{4-[(2R)-3-{4-[2-(2,6-dioxopiperidin-3-yl)-1-oxo-2,3-dihydro-1H-isoindol-5-yl]piperidin-1-yl}-2-hydroxypropyl]phenyl}-1H-pyrrolo[2,3-b]pyridine-3-carbonyl)-2,4-difluorophenyl]-3-fluoropyrrolidine-1-sulfonamide]",50 to 500 nM,35 to 70%,1 to 10 nM,> 70%
"COc1cc(N2CC3(CN(CC4CCN(c5ncc(-c6cnc7[nH]cc(C(=O)c8c(F)ccc(NS(=O)(=O)N9CC[C@@H](F)C9)c8F)c7c6)cn5)CC4)C3)C2)cc2c1C(=O)N(C1CCC(=O)NC1=O)C2 (stereo partly drawn) [Compound 134, (3R)-N-[3-(5-{2-[4-({6-[2-(2,6-dioxopiperidin-3-yl)-7-methoxy-1-oxo-2,3-dihydro-1H-isoindol-5-yl]-2,6-diazaspiro[3.3]heptan-2-yl}methyl)piperidin-1-yl]pyrimidn-5-yl}-1H-pyrrolo[2,3-b]pyridine-3-carbonyl)-2,4-difluorophenyl]-3-fluoropyrrolidine-1-sulfonamide]",5 to 50 nM,35 to 70%,< 1 nM,> 70%
"CCCS(=O)(=O)Nc1ccc(F)c(C(=O)c2c[nH]c3ncc(-c4ccc(N5CCC(CN6CCN(c7ccc8c(c7)CN([C@H]7CCC(=O)NC7=O)C8=O)CC6)CC5)cc4)cc23)c1F [Compound 245, N-{3-[5-(4-{4-[(4-{2-[(3S)-2,6-dioxopiperidin-3-yl]-1-oxo-2,3-dihydro-1H-isoindol-5-yl}piperazin-1-yl)methyl]piperidin-1-yl}phenyl)-1H-pyrrolo[2,3-b]pyridine-3-carbonyl]-2,4-difluorophenyl}propane-1-sulfonamide]",5 to 50 nM,35 to 70%,1 to 10 nM,> 70%
"CN1C(=O)CCC(N2Cc3cc(C4CCN(CC5CCN(c6ccc(-c7cnc8[nH]cc(C(=O)c9c(F)ccc(NS(=O)(=O)N%10CC[C@@H](F)C%10)c9F)c8c7)cc6)CC5)CC4)ccc3C2=O)C1=O (stereo partly drawn) [Compound 169, (3R)-N-[2,4-difluoro-3-(5-{4-[4-({4-[2-(1-methyl-2,6-dioxopiperidin-3-yl)-1-oxo-2,3-dihydro-1H-isoindol-5-yl]piperidin-1-yl}methyl)piperidin-1-yl]phenyl}-1H-pyrrolo[2,3-b]pyridine-3-carbonyl)phenyl]-3-fluoropyrrolidine-1-sulfonamide]",> 500 nM,,> 30 nM,
"O=C1CC[C@@H](NC(=O)c2ccc(N3CC4(CN(CC5CCN(c6ccc(-c7cnc8[nH]cc(C(=O)c9c(F)ccc(NS(=O)(=O)N%10CC[C@@H](F)C%10)c9F)c8c7)cc6)CC5)C4)C3)cc2F)C(=O)N1 [Compound 37, 4-(6-{[1-(4-{3-[2,6-difluoro-3-({[(3R)-3-fluoropyrrolidin-1-yl]sulfonyl}amino)benzoyl]-1H-pyrrolo[2,3-b]pyridin-5-yl}phenyl)piperidin-4-yl]methyl}-2,6-diazaspiro[3.3]heptan-2-yl)-N-[(3R)-2,6-dioxopiperidin-3-yl]-2-fluorobenzamide]",5 to 50 nM,< 35%,1 to 10 nM,35 to 70%
"O=C1CCC(N2Cc3cc(O[C@H]4C[C@]5(COCCN5CC5CCN(c6ccc(-c7cnc8[nH]cc(C(=O)c9c(F)ccc(NS(=O)(=O)N%10CC[C@@H](F)C%10)c9F)c8c7)cc6)CC5)C4)ccc3C2=O)C(=O)N1 (stereo partly drawn) [Compound 14, (3R)-N-(2,4-difluoro-3-{5-[4-(4-{[(2s,4s)-2-{[2-(2,6-dioxopiperidin-3-yl)-1-oxo-2,3-dihydro-1H-isoindol-5-yl]oxy}-8-oxa-5-azaspiro[3.5]nonan-5-yl]methyl}piperidin-1-yl)phenyl]-1H-pyrrolo[2,3-b]pyridine-3-carbonyl}phenyl)-3-fluoropyrrolidine-1-sulfonamide]",> 500 nM,35 to 70%,,< 35%
